Reference: patent publication US20040235939A1, “Synthesis of peloruside a and analogs thereof for use as antitumor agents” (priority 2003, published 2004)

What was measured:
HCT-15 = assay: SRB cytotoxicity assay, HCT-15; format: cell-based; details: Homo sapiens
Procedure: (§1) Cells were treated on Days 1, 3, 5, and 7 with 5 μL of media, vehicle, or drug. Peloruside A was resuspended in 0.1% DMSO and added to wells to a final concentration of 0.01, 0.1, 1, 10 or 100 nM. Taxol® (Sigma-Aldrich) was resuspended in 0.1% ethanol and added to cells to a final concentration of 0.1, 1, 10, 100, or 1000 nM.
(§2) The amount of surviving cells was measured using the sulforhodamine B (SRB) assay as previously described (Skehan et al., New colorimetric cytotoxicity assay for anticancer-drug screening. J. Natl. Cancer Inst., 1990. 82(13): p. 1107-12). Cells were fixed on Days 5, 7, and 9 (representing 4, 6, and 8 days of exposure to drug or control, respectively) with 50% (w/v) trichloroacetic acid for 1 hour at 4° C., rinsed thoroughly with water, and dried overnight. The dried cells were stained with 4% sulforhodamine B in 1% acetic acid, rinsed thoroughly and dried overnight. The bound dye was resuspended in 10 mM Tris and the absorbance was read at 492 nm. Percent growth inhibition (GI) was calculated as follows: %GI=(1−(absorbance sample/absorbance vehicle))×100. The absorbance value for each drug concentration and control represents the average of 6 replicates. The %GI was plotted against the log[drug] to generate the growth curves. The concentration of drug required to inhibit growth by 50% (GI50) was calculated for each time point.

Hep-G2 = assay: SRB cytotoxicity assay, Hep-G2; format: cell-based; details: Homo sapiens
Procedure: as §1, §2

DU-145 = assay: SRB cytotoxicity assay, DU-145; format: cell-based; details: Homo sapiens
Procedure: as §1, §2

NCI-H1395 = assay: SRB cytotoxicity assay, NCI-H1395; format: cell-based, human; details: Homo sapiens
Procedure: as §1, §2

BT-549 = assay: SRB cytotoxicity assay, BT-549; format: cell-based; details: Homo sapiens
Procedure: as §1, §2

NCI-H460 = assay: SRB cytotoxicity assay, NCI-H460; format: cell-based; details: Homo sapiens
Procedure: as §1, §2

CAKI-1 = assay: SRB cytotoxicity assay, CAKI-1; format: cell-based; details: Homo sapiens
Procedure: as §1, §2

NCI-H23 = assay: SRB cytotoxicity assay, NCI-H23; format: cell-based; details: Homo sapiens
Procedure: as §1, §2

SK-MEL-28 = assay: SRB cytotoxicity assay, SK-MEL-28; format: cell-based; details: Homo sapiens
Procedure: as §1, §2

Capan-1 = assay: SRB cytotoxicity assay, Capan-1; format: cell-based; details: Homo sapiens
Procedure: as §1, §2

A498 = assay: SRB cytotoxicity assay, A498; format: cell-based; details: Homo sapiens
Procedure: as §1, §2

SK-OV-3 = assay: SRB cytotoxicity assay, SK-OV-3; format: cell-based; details: Homo sapiens
Procedure: as §1, §2

ptx10 cells = assay: Cell Titer-Glo cell viability, Taxol-resistant ptx10 cells; details: Homo sapiens, PTX10, 48 h, read-out: cell viability
Procedure: (§3) These cell lines have specific amino acid mutations in tubulin that prevent Taxol®-binding. […] Synthetic (+)-Peloruside A was used for the present example.
(§4) 1A9, ptx10 and ptx22 cells were plated in 96-well plates to approximately 50% confluency. On the next day, Taxol® or Peloruside A was added to each well and incubated for 48 hours. A final concentration of 1, 2, 3, 4, 5, 8, 10, 20, 30, 50, 100, 300, 500, or 1000 nM of Taxol® was used. A final concentration of 10, 20, 30, 40, 50 or 70 nM of Peloruside A was used. Cell viability was measured using the Cell Titer-Glo Luminescent Cell Viability Assay (Promega). FIGS. 80-82 show bar graphs of cell viability at various concentrations of Peloruside A and Taxol®.

LoVo = assay: SRB cytotoxicity assay, LoVo; format: cell-based; details: Homo sapiens
Procedure: as §1, §2

SK-MEL-5 = assay: SRB cytotoxicity assay, SK-MEL-5; format: cell-based; details: Homo sapiens
Procedure: as §1, §2

ptx22 cells = assay: Cell Titer-Glo cell viability, Taxol-resistant ptx22 cells; details: Homo sapiens, 48 h, read-out: cell viability
Procedure: as §3, §4

[1] = system: BSC-1 (Monkey Kidney epithelial) cells; assay: Immunofluorescent staining of tubulin in BSC-1 cells; format: cell-based; details: 200 nM of Taxol® or 50 nM of Peloruside A
NCI-H2887 = assay: SRB cytotoxicity assay, NCI-H2887; format: cell-based, human
Procedure: as §1, §2

HCT-116 = assay: SRB cytotoxicity assay, HCT-116; format: cell-based; details: Homo sapiens
Procedure: as §1, §2

SK-HEP-1 = assay: SRB cytotoxicity assay, SK-HEP-1; format: cell-based; details: Homo sapiens
Procedure: as §1, §2

PC-3 = assay: SRB cytotoxicity assay, PC-3; format: cell-based; details: Homo sapiens
Procedure: as §1, §2

CC[C@H](/C=C(/C)C1C[C@@H](OC)CC(O)C(C)(C)C2(O)OC(C[C@@H](OC)C2O)C[C@@H](OC)[C@H](O)C(=O)O1)CO (single isomer, unassigned; (+)) [Peloruside A, (+)-Peloruside A]
GI50 (HCT-15; HCT-15, 96 h): 14.3 nM | GI50 (HCT-15; HCT-15, 144 h): 9.23 nM | GI50 (HCT-15; HCT-15, 192 h): 11.7 nM | GI50 (Hep-G2; HepG2, 96 h): 18 nM | GI50 (Hep-G2; HepG2, 144 h): 1.58 nM | GI50 (Hep-G2; HepG2, 192 h): 0.98 nM | GI50 (DU-145; DU-145, 96 h): 9.2 nM | GI50 (DU-145; DU-145, 144 h): 3.25 nM | GI50 (DU-145; DU-145, 192 h): 2.94 nM | GI50 (NCI-H1395; NCI-H1395, 96 h): 1010 nM | GI50 (NCI-H1395; NCI-H1395, 144 h): 84.1 nM | GI50 (NCI-H1395; NCI-H1395, 192 h): 15.2 nM | GI50 (BT-549; BT-549, 96 h): 38.8 nM | GI50 (BT-549; BT-549, 144 h): 4.28 nM | GI50 (BT-549; BT-549, 192 h): 5.73 nM | GI50 (NCI-H460; NCI-H460, 96 h): 8.27 nM | GI50 (NCI-H460; NCI-H460, 144 h): 5.38 nM | GI50 (NCI-H460; NCI-H460, 192 h): 4.77 nM | GI50 (CAKI-1; CAKI-1, 96 h): 12.5 nM | GI50 (CAKI-1; CAKI-1, 144 h): 3.97 nM | GI50 (CAKI-1; CAKI-1, 192 h): 3 nM | GI50 (NCI-H23; NCI-H23, 144 h): 7.11 nM | GI50 (NCI-H23; NCI-H23, 192 h): 4.78 nM | GI50 (SK-MEL-28; SK-MEL-28, 96 h): 23.3 nM | GI50 (SK-MEL-28; SK-MEL-28, 144 h): 7.29 nM | GI50 (SK-MEL-28; SK-MEL-28, 192 h): 2.07 nM | GI50 (Capan-1; CAPAN-1, 96 h): 29.8 nM | GI50 (Capan-1; CAPAN-1, 144 h): 6.8 nM | GI50 (Capan-1; CAPAN-1, 192 h): 5.21 nM | GI50 (A498; A498, 96 h): 7.3 nM | GI50 (A498; A498, 144 h): 1.9 nM | GI50 (A498; A498, 192 h): 2.75 nM | GI50 (SK-OV-3; SK-OV-3, 96 h): 8.81 nM | GI50 (SK-OV-3; SK-OV-3, 144 h): 8.51 nM | GI50 (SK-OV-3; SK-OV-3, 192 h): 5.77 nM | viability at 0.03 µM (ptx10 cells): ~50% | GI50 (LoVo; 96 h): 11.8 nM | GI50 (LoVo; 144 h): 7.34 nM | GI50 (LoVo; 192 h): 6.14 nM | GI50 (SK-MEL-5; SK-MEL-5, 96 h): 9.42 nM | GI50 (SK-MEL-5; SK-MEL-5, 144 h): 1.76 nM | GI50 (SK-MEL-5; SK-MEL-5, 192 h): 2.44 nM | viability at 0.03 µM (ptx22 cells): ~50% | formation of a bipolar spindle [1]: inhibits the formation of a bipolar spindle | GI50 (NCI-H2887; Homo sapiens, NCI-H2887, 144 h): 674 nM | GI50 (NCI-H2887; Homo sapiens, NCI-H2887, 192 h): 9.15 nM | GI50 (NCI-H2887; NCl-H2887, Lung, 4 Days): 4 Days: Resistant | GI50 (HCT-116; HCT-116, 96 h): 3.64 nM | GI50 (HCT-116; HCT-116, 144 h): 5.81 nM | GI50 (HCT-116; HCT-116, 192 h): 1.79 nM | GI50 (SK-HEP-1; SK-HEP1, 96 h): 39.3 nM | GI50 (SK-HEP-1; SK-HEP1, 144 h): 11.2 nM | GI50 (SK-HEP-1; SK-HEP1, 192 h): 1.45 nM | GI50 (PC-3; PC-3, 96 h): 11.6 nM | GI50 (PC-3; PC-3, 144 h): 6.5 nM | GI50 (PC-3; PC-3, 192 h): 2.46 nM
